Reference: patent publication US20140323306A1, “Substituted 1,2,5-Oxadiazole Compounds and Their Use as Herbicides” (BASF SE, priority 2011, published 2014)

Test system: CHEAL
Assay: Greenhouse herbicidal test, post-emergence treatment
Type: in vivo, Chenopodium album
Conditions: post-emergence method, application rate 0.25 kg/ha; scale from 0 to 100
Description: The seeds of the test plants were shown separately for each species. For the post-emergence treatment, the test plants were first grown to a height of 3 to 15 cm, depending on the plant habit, and only then treated with the active ingredients which had been suspended or emulsified in water. For this purpose, the test plants were either shown directly and grown in the same containers, or they were first grown separately as seedlings and transplanted into the test containers a few days prior to treatment. Depending on the species, the plants were kept at 10-25° C. or 20-35° C. The test period extended over 2 to 4 weeks. During this time, the plants were tended, and their response to the individual treatments was evaluated. Evaluation was carried out using a scale from 0 to 100. 100 means no emergence of the plants, or complete destruction of at least the aerial moieties, and 0 means no damage, or normal course of growth. A good herbicidal activity is given at values of at least 70 and a very good herbicidal activity is given at values of at least 85. The plants used in the greenhouse experiments belonged to the following species: [table]

## Cc1nonc1NC(=O)c1c(Cl)cc(Cl)cc1Cl [I′.A-2, 2,4,6-trichloro-N-(4-methyl-1,2,5-oxadiazol-3-yl)benzamide]
  herbicidal activity against CHEAL: very good (a very good herbicidal activity is given at values of at least 85)
